Source: ChEMBL document CHEMBL4138123, “Design, synthesis and biological evaluation of novel pyrazolochalcones as potential modulators of PI3K/Akt/mTOR pathway and inducers of apoptosis in breast cancer cells” (Eur J Med Chem, 2017)

What was measured:
Type in all cases: functional
HCT-116 [1] = experiment: Cytotoxicity against human HCT116 cells assessed as growth inhibition after 48 hrs by sulforhodamine B assay; conditions: HCT-116, 48 h
HCT-15 = experiment: Cytotoxicity against human HCT15 cells assessed as growth inhibition after 48 hrs by sulforhodamine B assay; conditions: HCT-15, 48 h
SK-MEL-28 = experiment: Cytotoxicity against human SK-MEL-28 cells assessed as growth inhibition after 48 hrs by sulforhodamine B assay; conditions: SK-MEL-28, 48 h
UACC-62 [2] = experiment: Cytotoxicity against human UACC62 cells assessed as cell growth at 0.01 uM after 48 hrs by sulforhodamine B assay relative to control; conditions: UACC-62, 48 h, read-out: Activity
NCI-H322M [3] = experiment: Cytotoxicity against human NCI-H322M cells assessed as cell growth at 0.01 uM after 48 hrs by sulforhodamine B assay relative to control; conditions: read-out: Activity
K562 = experiment: Cytotoxicity against human K562 cells assessed as cell growth at 0.01 uM after 48 hrs by sulforhodamine B assay relative to control; conditions: K562, 48 h, read-out: Activity
PC-3 [4] = experiment: Cytotoxicity against human PC3 cells assessed as cell growth at 0.01 uM after 48 hrs by sulforhodamine B assay relative to control; conditions: PC-3, 48 h, read-out: Activity
NCI-H23 = experiment: Cytotoxicity against human NCI-H23 cells assessed as cell growth at 0.1 uM after 48 hrs by sulforhodamine B assay relative to control; conditions: NCI-H23, 48 h, read-out: Activity
NCI-H322M [5] = experiment: Cytotoxicity against human NCI-H322M cells assessed as cell growth at 0.1 uM after 48 hrs by sulforhodamine B assay relative to control; conditions: read-out: Activity
HCC 2998 = experiment: Cytotoxicity against human HCC2998 cells assessed as cell growth at 0.1 uM after 48 hrs by sulforhodamine B assay relative to control; conditions: HCC 2998, 48 h, read-out: Activity
SF-539 = experiment: Cytotoxicity against human SF539 cells assessed as cell growth at 0.1 uM after 48 hrs by sulforhodamine B assay relative to control; conditions: SF-539, 48 h, read-out: Activity
OVCAR-4 [6] = experiment: Cytotoxicity against human OVCAR4 cells assessed as cell growth at 0.1 uM after 48 hrs by sulforhodamine B assay relative to control; conditions: OVCAR-4, 48 h, read-out: Activity
SN12C = experiment: Cytotoxicity against human SN12C cells assessed as cell growth at 0.1 uM after 48 hrs by sulforhodamine B assay relative to control; conditions: read-out: Activity
HCT-116 [7] = experiment: Cytotoxicity against human HCT116 cells assessed as cell growth at 1 uM after 48 hrs by sulforhodamine B assay relative to control; conditions: HCT-116, 48 h, read-out: Activity
OVCAR-8 [8] = experiment: Cytotoxicity against human OVCAR8 cells assessed as cell growth at 1 uM after 48 hrs by sulforhodamine B assay relative to control; conditions: OVCAR-8, 48 h, read-out: Activity
NCI/ADR-RES = experiment: Cytotoxicity against human NCI/ADR-RES cells assessed as cell growth at 1 uM after 48 hrs by sulforhodamine B assay relative to control; conditions: read-out: Activity
SK-OV-3 = experiment: Cytotoxicity against human SKOV3 cells assessed as cell growth at 1 uM after 48 hrs by sulforhodamine B assay relative to control; conditions: SK-OV-3, 48 h, read-out: Activity
TK-10 = experiment: Cytotoxicity against human TK10 cells assessed as cell growth at 1 uM after 48 hrs by sulforhodamine B assay relative to control; conditions: TK-10, 48 h, read-out: Activity
PC-3 [9] = experiment: Cytotoxicity against human PC3 cells assessed as cell growth at 1 uM after 48 hrs by sulforhodamine B assay relative to control; conditions: PC-3, 48 h, read-out: Activity
CCRF-CEM = experiment: Cytotoxicity against human CCRF-CEM cells assessed as cell growth at 10 uM after 48 hrs by sulforhodamine B assay relative to control; conditions: read-out: Activity
MOLT-4 = experiment: Cytotoxicity against human MOLT4 cells assessed as cell growth at 10 uM after 48 hrs by sulforhodamine B assay relative to control; conditions: MOLT-4, 48 h, read-out: Activity
NCI-H226 = experiment: Cytotoxicity against human NCI-H226 cells assessed as cell growth at 10 uM after 48 hrs by sulforhodamine B assay relative to control; conditions: NCI-H226, 48 h, read-out: Activity
MDA-MB-435 = experiment: Cytotoxicity against human MDA-MB-435 cells assessed as cell growth at 10 uM after 48 hrs by sulforhodamine B assay relative to control; conditions: MDA-MB-435, 48 h, read-out: Activity
SK-MEL-5 = experiment: Cytotoxicity against human SK-MEL-5 cells assessed as cell growth at 10 uM after 48 hrs by sulforhodamine B assay relative to control; conditions: SK-MEL-5, 48 h, read-out: Activity
UACC-62 [10] = experiment: Cytotoxicity against human UACC62 cells assessed as cell growth at 10 uM after 48 hrs by sulforhodamine B assay relative to control; conditions: UACC-62, 48 h, read-out: Activity
RXF 393 = experiment: Cytotoxicity against human RXF393 cells assessed as cell growth at 10 uM after 48 hrs by sulforhodamine B assay relative to control; conditions: RXF 393, 48 h, read-out: Activity
MDA-MB-231 = experiment: Cytotoxicity against human MDA-MB-231 cells assessed as cell growth at 10 uM after 48 hrs by sulforhodamine B assay relative to control; conditions: MDA-MB-231, 48 h, read-out: Activity
HL-60(TB) = experiment: Cytotoxicity against human HL-60(TB) cells assessed as cell growth at 100 uM after 48 hrs by sulforhodamine B assay relative to control; conditions: HL-60, 48 h, read-out: Activity
RPMI-8226 = experiment: Cytotoxicity against human RPMI8226 cells assessed as cell growth at 100 uM after 48 hrs by sulforhodamine B assay relative to control; conditions: RPMI-8226, 48 h, read-out: Activity
OVCAR-4 [11] = experiment: Cytotoxicity against human OVCAR4 cells assessed as cell growth at 100 uM after 48 hrs by sulforhodamine B assay relative to control; conditions: OVCAR-4, 48 h, read-out: Activity
OVCAR-8 [12] = experiment: Cytotoxicity against human OVCAR8 cells assessed as cell growth at 100 uM after 48 hrs by sulforhodamine B assay relative to control; conditions: OVCAR-8, 48 h, read-out: Activity
786-0 = experiment: Cytotoxicity against human 786-0 cells assessed as cell growth at 100 uM after 48 hrs by sulforhodamine B assay relative to control; conditions: 786-0, 48 h, read-out: Activity
MDA-MB-468 = experiment: Cytotoxicity against human MDA-MB-468 cells assessed as cell growth at 100 uM after 48 hrs by sulforhodamine B assay relative to control; conditions: MDA-MB-468, 48 h, read-out: Activity
DU-145 [13] = experiment: Cytotoxicity against human DU145 cells assessed as cell growth at 0.1 uM after 48 hrs by sulforhodamine B assay relative to control; conditions: DU-145, 48 h, read-out: Activity
DU-145 [14] = experiment: Cytotoxicity against human DU145 cells assessed as cell growth at 100 uM after 48 hrs by sulforhodamine B assay relative to control; conditions: DU-145, 48 h, read-out: Activity

SMILES	LC50 (HCT-116 [1])	TGI (HCT-116 [1])	LC50 (HCT-15)	TGI (HCT-15)	LC50 (SK-MEL-28)	TGI (SK-MEL-28)	growth at 0.01 µM (UACC-62 [2])	growth at 0.01 µM (NCI-H322M [3])	growth at 0.01 µM (K562)	growth at 0.01 µM (PC-3 [4])	growth at 0.1 µM (NCI-H23)	growth at 0.1 µM (NCI-H322M [5])	growth at 0.1 µM (HCC 2998)	growth at 0.1 µM (SF-539)	growth at 0.1 µM (OVCAR-4 [6])	growth at 0.1 µM (SN12C)	growth at 1 µM (HCT-116 [7])	growth at 1 µM (OVCAR-8 [8])	growth at 1 µM (NCI/ADR-RES)	growth at 1 µM (SK-OV-3)	further results
COc1cc(C(=O)/C=C/c2cc(-c3cc(OC)c(OC)c(OC)c3)n[nH]2)cc(OC)c1OC	5.12 µM	2.59 µM	7.19 µM	3.29 µM	6.07 µM	3.33 µM	97%	96%	99%	95%	101%	97%	101%	91%	95%	98%	70%	81%	95%	96%	growth at 1 µM (TK-10): 80%; growth at 1 µM (PC-3 [9]): 74%; growth at 10 µM (CCRF-CEM): -7%; growth at 10 µM (MOLT-4): -4%; growth at 10 µM (NCI-H226): -92%; growth at 10 µM (MDA-MB-435): -90%; growth at 10 µM (SK-MEL-5): -98%; growth at 10 µM (UACC-62 [10]): -69%; growth at 10 µM (RXF 393): -88%; growth at 10 µM (MDA-MB-231): -53%; growth at 100 µM (HL-60(TB)): -33%; growth at 100 µM (RPMI-8226): -26%; growth at 100 µM (OVCAR-4 [11]): -98%; growth at 100 µM (OVCAR-8 [12]): -99%; growth at 100 µM (786-0): -98%; growth at 100 µM (MDA-MB-468): -91%
COc1ccc(-c2cc(/C=C/C(=O)c3cc(OC)c(OC)c(OC)c3)[nH]n2)cc1OC	5.18 µM	1.79 µM	> 100 µM	3.85 µM	10.6 µM	4.41 µM	96%	93%	100%	97%	95%	88%	100%	81%	73%	99%	27%	80%	81%	87%	GI50 (HCT-116 [1]): 0.42 µM; GI50 (HCT-15): 1.19 µM; GI50 (SK-MEL-28): 1.91 µM; growth at 0.1 µM (DU-145 [13]): 103%; growth at 1 µM (TK-10): 96%; growth at 1 µM (PC-3 [9]): 71%; growth at 10 µM (CCRF-CEM): -15%; growth at 10 µM (MOLT-4): -4%; growth at 10 µM (NCI-H226): -8%; growth at 10 µM (MDA-MB-435): -55%; growth at 10 µM (SK-MEL-5): -99%; growth at 10 µM (UACC-62 [10]): -61%; growth at 10 µM (RXF 393): -80%; growth at 10 µM (MDA-MB-231): 11%; growth at 100 µM (HL-60(TB)): -8%; growth at 100 µM (RPMI-8226): -31%; growth at 100 µM (OVCAR-8 [12]): -84%; growth at 100 µM (786-0): -90%; growth at 100 µM (DU-145 [14]): -88%; growth at 100 µM (MDA-MB-468): -58%
COc1ccc(-c2cc(/C=C/C(=O)c3ccc4c(c3)OCO4)[nH]n2)cc1OC	–	–	–	–	–	–	–	–	–	–	–	–	–	–	–	–	–	–	–	–	GI50 (HCT-116 [1]): 0.36 µM; GI50 (HCT-15): 1.09 µM; GI50 (SK-MEL-28): 1.82 µM
